Assay results from US12378247B2, “Mesylate salt of para-topolin, compositions containing said salt and use thereof” (USTAV EXPERIMENTALNI BOTANIKY AV CR, V. V. I., priority 2020, dated 2025).
Where “and” joins values, the source holds several entries; their conditions need not be identical. Equal entries are not always repeated. Structures can show the parent of a compound that is named as a salt.

Columns and labels:
[1] = system: HeLa (cervical carcinoma); assay: Calcein AM cytotoxicity assay, HELA; format: cell-based; settings: 3-day Calcein-AM assay, read-out: Cytotoxic activity IC50
From the text: (§1) Because toxic compounds negatively influence metabolic processes of cells, many standard cytotoxicity assays are based on measurement of metabolisation rate of various artificial substrates. Resulting product is then quantified, for example, by means of spectrometry. The assays can be easily modified for use in 96-well plates. For evaluation of cytotoxicity of the […] of this invention, a microtiter assay based on quantification of metabolisation of Calcein AM was used. The assay is widely used in drug screening programs and in chemosensitivity testing. In live cells, Calcein AM is enzymatically hydrolysed and accumulation of the resulting calcein is manifested by green fluorescence. […]
(§2) Approximately 10,000 cells in 80 μL of medium were seeded into 96-well microtitre plates. […] The fluorescence of free calcein was then quantified using a Fluoroscan Ascent fluorometer (Microsystems), and the percentage of surviving cells in each well was calculated by dividing the OD obtained from each cell with exposed cells by the mean OD obtained from control wells×100%. […]

[2] = system: MCF-7 (breast adenocarcinoma); assay: Calcein AM cytotoxicity assay, MCF7; format: cell-based; settings: MCF7, 3-day Calcein-AM assay; read-out: Cytotoxic activity IC50
From the text: as §1, §2

[3] = water; reported value; cited from earlier work
[4] = system: HL-60 (promyelocytic leukaemia); assay: Calcein AM cytotoxicity assay, HL60; format: cell-based; settings: HL60, 3-day Calcein-AM assay; read-out: Cytotoxic activity IC50
From the text: as §1, §2

[5] = system: CEM (T-lymphoblastic leukaemia); assay: Calcein AM cytotoxicity assay, CEM; format: cell-based; settings: 3-day Calcein-AM assay, read-out: Cytotoxic activity IC50
From the text: as §1, §2

[6] = system: RPMI 8226 (multiple myeloma); assay: Calcein AM cytotoxicity assay, RPMI 8226; format: cell-based; settings: RPMI 8226, 3-day Calcein-AM assay; read-out: Cytotoxic activity IC50
From the text: as §1, §2

[7] = Calcein AM cytotoxicity assay, HELA; format: cell-based; settings: human, HeLa cells (cervical carcinoma), 3-day Calcein-AM assay, read-out: Cytotoxic activity IC50
From the text: as §1, §2

[8] = Aqueous solubility (saturated solution, HPLC); format: physicochemical; settings: thermodynamic from solid, water, read-out: concentration of saturated solution in water (aqueous solubility)
Method: Aqueous solubility was measured using the following protocol. Supersaturated solution of para-topolin mesylate salt in water was prepared. The solution was filtrated from visible undissolved particles of the salt to obtain saturated solution. Saturated solution was diluted 1:10 000 and measured using HPLC Alliance Waters 2690 with C18 Symmetry column with the diameter 2.1 mm and 150 mm length with a porosity of 5 μm. The sample was dissolved in the mobile phase (MeOH:HCOONH4-1:9). The sample was washed with a methanol gradient (10-90%, 35 min) at pH 4 and a flow rate of 0.3 ml/min. The absorbances of the components were detected in the UV region at 210-400 nm. The peak area was 2729231. Obtained peak area was compared to area peaks measured at certain concentration and the final concentration of saturated solution was determined.

[9] = Calcein AM cytotoxicity assay, MCF7; format: cell-based; settings: human, MCF-7 cells (breast adenocarcinoma); MCF7, 3-day Calcein-AM assay; read-out: Cytotoxic activity IC50
From the text: as §1, §2

[10] = Calcein AM cytotoxicity assay, HL60; format: cell-based; settings: human, HL-60 cells (promyelocytic leukaemia); HL60, 3-day Calcein-AM assay; read-out: Cytotoxic activity IC50
From the text: as §1, §2

[11] = Calcein AM cytotoxicity assay, CEM; format: cell-based; settings: human, CEM cells (T-lymphoblastic leukaemia), 3-day Calcein-AM assay, read-out: Cytotoxic activity IC50
From the text: as §1, §2

[12] = Calcein AM cytotoxicity assay, RPMI 8226; format: cell-based; settings: human, RPMI 8226 cells (multiple myeloma); RPMI 8226, 3-day Calcein-AM assay; read-out: Cytotoxic activity IC50
From the text: as §1, §2

Row | SMILES | IC50 [1] [µM] | IC50 [2] [µM] | aqueous solubility (reported) [3] [µg/mL] | IC50 [4] [µM] | IC50 [5] [µM] | IC50 [6] [µM] | IC50 at 72 h [7] [µM] | Solubility [8] | IC50 at 72 h [9] [µM] | IC50 at 72 h [10] [µM] | IC50 at 72 h [11] [µM] | IC50 at 72 h [12] [µM]
1 | Oc1ccc(CNc2ncnc3nc[nH]c23)cc1 [para-topolin, 6-(4-Hydroxybenzylamino) purine] | > 167 | > 167 | < 40 | > 167 | > 167 | > 167 | – | – | – | – | – | –
2 | Oc1ccc(CNc2ncnc3nc[nH]c23)cc1 [para-topolin mesylate, 6-(4-hydroxybenzylamino) purine (para-topolin) mesylate (methylsulphonate)] | – | – | – | – | – | – | > 167 | ~1.2e+06 µM and ~407000 µg/mL | > 167 | > 167 | > 167 | > 167
